# Active and inactive are the calls of the source. No rule for the calls is given here.
# Tested on: GENE-TOX genotoxicity assays, various organisms and cells
# Assay: GENE-TOX mutagenicity studies
# Settings: for call: Assay Type: In vivo carcinogenicity studies
# Text: GENE-TOX provides genetic toxicology (mutagenicity) test data from expert peer review of open scientific literature for more than 3,000 chemicals from the United States Environmental Protection Agency (EPA). GENE-TOX was established to select assay systems for evaluation, review data in the scientific literature, and recommend proper testing protocols and evaluation procedures for these systems.
# GENE-TOX covers the years 1991 - 1998. It is no longer updated.
# This is an archive assay for GENE-TOX mutagenicity studies.
# [1] = Species/Cell Type: Nonhuman, Assay Code: CCGT, Evaluation Type: Evaluation A (Pre-1980)
# [2] = Species/Cell Type: Nonhuman, Assay Type: Sister-chromatid exchange (SCE) in vitro, Assay Code: SC2+, Evaluation Type: Evaluation B (Post-1980)
# [3] = Species/Cell Type: Nonhuman, Assay Type: Sister-chromatid exchange (SCE) in vivo, Assay Code: SC3T, Evaluation Type: Evaluation B (Post-1980)
# [4] = Species/Cell Type: Saccharomyces cerevisiae, Assay Type: Mitotic recombination or gene conversion, Assay Code: YEC+, Evaluation Type: Evaluation A (Pre-1980)
# [5] = Species/Cell Type: Salmonella typhimurium (one or more of the five standard strains: TA98, TA100, TA1535, TA1537, and TA1538), Assay Type: Histidine reverse gene mutation, Ames assay, Assay Code: SAL+, Evaluation Type: Evaluation A (Pre-1980)
# [6] = Species/Cell Type: Drosophila melanogaster, Assay Type: Sex-linked recessive lethal gene mutation, Assay Code: SRL+, Evaluation Type: Evaluation A (Pre-1980)
# [7] = Species/Cell Type: Mammalian polychromatic erythrocytes, Assay Type: Micronucleus test, chromosome aberrations, Assay Code: MNTT, Evaluation Type: Evaluation B (Post-1980)
# [8] = Species/Cell Type: Chinese hamster ovary (CHO) cells, Assay Type: Forward gene mutation at the HPRT locus, Assay Code: CHO+, Evaluation Type: Evaluation B (Post-1980)
# [9] = Species/Cell Type: Allium cepa, Assay Type: Chromosome aberrations, Assay Code: ALC+D, Dose Response: With dose response, Evaluation Type: Evaluation A (Pre-1980)
# [10] = Species/Cell Type: Arabidopsis species, Assay Type: Gene mutation, Assay Code: ARM-, Evaluation Type: Evaluation A (Pre-1980)
# [11] = Species/Cell Type: Salmonella typhimurium (one or more of the five standard strains: TA98, TA100, TA1535, TA1537, and TA1538), Assay Type: Histidine reverse gene mutation, Ames assay, Assay Code: SALT, Evaluation Type: Evaluation A (Pre-1980)
# [12] = Species/Cell Type: Saccharomyces cerevisiae, Assay Type: Forward and reverse gene mutation, mitotic recombination and gene conversion, host-mediated assay, Assay Code: HME+, Evaluation Type: Evaluation A (Pre-1980)
# [13] = Species/Cell Type: Hordeum vulgare (barley), Assay Type: Chromosome aberrations, Assay Code: HOC+D, Dose Response: With dose response, Evaluation Type: Evaluation A (Pre-1980)
# [14] = Species/Cell Type: Salmonella typhimurium (one or more of the five standard strains: TA98, TA100, TA1535, TA1537, and TA1538), Assay Type: Histidine reverse gene mutation, Ames assay, Assay Code: SAL+*, Activation: With metabolic activation, Evaluation Type: Evaluation A (Pre-1980)
# [15] = Species/Cell Type: Chinese hamster lung (V79) cells, Assay Type: Forward gene mutation at the HPRT or ouabain locus, Assay Code: V79-, Evaluation Type: Evaluation A (Pre-1980)
# [16] = Species/Cell Type: Nonhuman, Assay Code: CCG+L, Evaluation Type: Evaluation A (Pre-1980)
# [17] = Species/Cell Type: Human, Assay Type: Sister-chromatid exchange (SCE) in vitro, Assay Code: SC1T, Evaluation Type: Evaluation B (Post-1980)
# [18] = Species/Cell Type: Human lymphocytes, Assay Type: Sister-chromatid exchange (SCE) in vitro, Assay Code: SCLT, Evaluation Type: Evaluation B (Post-1980)
smiles,measurement,setting,value
Nc1ccc2cc3ccc(N)cc3nc2c1,mutagenic call,"Species/Cell Type: Drosophila melanogaster, Assay Type: Aneuploidy, sex chromosome gain, chromosome aberrations, Assay Code: DAGT, Evaluation Type: Evaluation A (Pre-1980)",no conclusion
same,mutagenic call,"Species/Cell Type: Drosophila melanogaster, Assay Type: Aneuploidy, whole sex chromosome loss, chromosome aberrations, Assay Code: DAC+F, Evaluation Type: Evaluation A (Pre-1980)",active; positive
same,mutagenic call,"Species/Cell Type: Escherichia coli polA (W3119 vs P3478), Assay Type: Rec-assay, DNA effects (bacterial DNA repair), Assay Code: RE1+, Evaluation Type: Evaluation A (Pre-1980)",active; positive
same,mutagenic call,"Species/Cell Type: Human lymphocytes, Assay Type: Sister-chromatid exchange (SCE) in vitro, Assay Code: SCL+, Evaluation Type: Evaluation B (Post-1980)",active; positive
same,mutagenic call,"Species/Cell Type: Human, Assay Type: Sister-chromatid exchange (SCE) in vitro, Assay Code: SC1+, Evaluation Type: Evaluation B (Post-1980)",active; positive
same,mutagenic call,"Species/Cell Type: Mouse lymphoma (L5178Y) cells, Assay Type: Forward gene mutation at the thymidine kinase (TK) locus, chromosome aberrations, Assay Code: L51+, Evaluation Type: Evaluation A (Pre-1980)",active; positive
same,call,[1],no conclusion
same,mutagenic call,[2],active; positive
same,mutagenic call,"Species/Cell Type: Nonhuman, Assay Type: Sister-chromatid exchange (SCE) in vitro, Assay Code: SC2+D, Dose Response: With dose response, Evaluation Type: Evaluation A (Pre-1980)",active; positive
same,mutagenic call,"Species/Cell Type: Nonhuman, Assay Type: Sister-chromatid exchange (SCE) in vivo, Assay Code: SC3-, Evaluation Type: Evaluation A (Pre-1980)",inactive; negative
same,mutagenic call,[3],no conclusion
same,mutagenic call,[4],active; positive
same,mutagenic call,"Species/Cell Type: Saccharomyces cerevisiae, Assay Type: Mitotic recombination or gene conversion, Assay Code: YECT, Evaluation Type: Evaluation A (Pre-1980)",no conclusion
same,mutagenic call,[5],active; positive
Cc1cc(O)c2c(c1)C(=O)C13C(=C2O)C(=O)C2C(O)C1C1C(O)C3C(=O)C3=C(O)c4c(O)cc(C)cc4C(=O)C321 (stereo unspecified),mutagenic call,"Species/Cell Type: Bacillus subtilis (H17 vs M45), Assay Type: Rec-assay, spot test, DNA effects (bacterial DNA repair), Assay Code: REW+, Evaluation Type: Evaluation A (Pre-1980)",active; positive
CC(C)OC(N)=O,mutagenic call,"Species/Cell Type: Nonhuman, Assay Type: Sister-chromatid exchange (SCE) in vivo, Assay Code: SC3+D, Dose Response: With dose response, Evaluation Type: Evaluation B (Post-1980)",active; positive
CC(C)NP(=O)(N1CC1)N1CC1,mutagenic call,[6],active; positive
same,mutagenic call,"Species/Cell Type: Nonhuman, Assay Type: Chromosome aberrations in vitro, Assay Code: CY&+, Evaluation Type: Evaluation A (Pre-1980)",active; positive
CN(C)c1ccc(C#N)cc1,mutagenic call,[7],no conclusion
FC(F)(Cl)Cl,mutagenic call,"Species/Cell Type: Tradescantia species, Assay Type: Gene mutation, Assay Code: TRM-, Evaluation Type: Evaluation A (Pre-1980)",inactive; negative
Cc1c2ccncc2c(C)c2c1[nH]c1ccc(N)cc12,mutagenic call,[8],active; positive
O=C(COc1ccc(Br)cc1CN1CCCCC1)N/N=C\c1ccccc1,mutagenic call,"Species/Cell Type: Saccharomyces cerevisiae, Assay Type: Reverse gene mutation, Assay Code: YERT, Evaluation Type: Evaluation A (Pre-1980)",no conclusion
N#Cc1cccc2ccccc12,mutagenic call,[9],active; positive
O=C(O)CN(CCN(CC(=O)O)CC(=O)O)CC(=O)O,mutagenic call,"Species/Cell Type: Allium cepa, Assay Type: Chromosome aberrations, Assay Code: ALC+, Evaluation Type: Evaluation A (Pre-1980)",active; positive
same,mutagenic call,[10],inactive; negative
same,call,"Species/Cell Type: Nonhuman, Assay Code: CCG-, Evaluation Type: Evaluation A (Pre-1980)",inactive; negative
same,mutagenic call,"Species/Cell Type: Salmonella typhimurium (one or more of the five standard strains: TA98, TA100, TA1535, TA1537, and TA1538), Assay Type: Histidine reverse gene mutation, Ames assay, Assay Code: SAL-, Evaluation Type: Evaluation A (Pre-1980)",inactive; negative
Nc1ccc(Cl)cc1Cl,mutagenic call,"Species/Cell Type: Mouse, Sex: Male, Assay Type: Sperm morphology, Assay Code: SPI-, Evaluation Type: Evaluation A (Pre-1980)",inactive; negative
Cn1ncc2c(NC3=NCCO3)cccc21,mutagenic call,[7],no conclusion
same,mutagenic call,[3],no conclusion
Cc1cc2nc3ccc(N(C)C)cc3nc2cc1NC(=O)CN(C)N=O,mutagenic call,[11],no conclusion
CS(=O)(=O)OC[C@@H](O)[C@@H](O)[C@H](O)[C@H](O)COS(C)(=O)=O,mutagenic call,[6],active; positive
COc1ccc2nc3cc(Cl)ccc3c(NCCCNCCCl)c2c1,mutagenic call,"Species/Cell Type: Chinese hamster ovary (CHO) cells, Assay Type: Forward gene mutation at the HPRT locus, Assay Code: CHO+D, Dose Response: With dose response, Evaluation Type: Evaluation A (Pre-1980)",active; positive
same,mutagenic call,"Species/Cell Type: Human diploid fibroblasts, Assay Type: Unscheduled DNA synthesis (UDS) in vitro, DNA effects, Assay Code: UDH-, Evaluation Type: Evaluation A (Pre-1980)",inactive; negative
same,call,[1],no conclusion
same,mutagenic call,[12],active; positive
same,mutagenic call,[4],active; positive
same,mutagenic call,[5],active; positive
COCC(C)OS(C)(=O)=O (stereo unspecified),mutagenic call,[13],active; positive
O=[N+]([O-])c1c2ccccc2c2ccc3cccc4ccc1c2c43,mutagenic call,"Species/Cell Type: Chinese hamster ovary (CHO) cells, Assay Type: Forward gene mutation at the HPRT locus, Assay Code: CHOT, Evaluation Type: Evaluation B (Post-1980)",no conclusion
same,mutagenic call,[14],active; positive
O=Nc1ccc2ccc3cccc4ccc1c2c34,mutagenic call,[8],active; positive
Oc1cc2ccc3cc4ccccc4c4ccc(c1)c2c34,mutagenic call,[15],inactive; negative
same,call,[16],active; positive
same,mutagenic call,[14],active; positive
Nc1ncnc2nc[nH]c12,mutagenic call,[9],active; positive
same,mutagenic call,"Species/Cell Type: Drosophila melanogaster, Assay Type: Sex-linked recessive lethal gene mutation, Assay Code: SRLT, Evaluation Type: Evaluation A (Pre-1980)",no conclusion
COc1ccc(-c2csc(N)n2)cc1,mutagenic call,"Species/Cell Type: Salmonella typhimurium, Serratia marcesens, Assay Type: Forward and reverse gene mutation, host-mediated assay, Assay Code: HM2T, Evaluation Type: Evaluation A (Pre-1980)",no conclusion
c1ccc2c(c1)ncn2CN1CCCCC1,mutagenic call,[10],inactive; negative
C=COC=C,mutagenic call,[2],active; positive
NC(=O)OCCO,mutagenic call,"Species/Cell Type: Nonhuman, Assay Type: Sister-chromatid exchange (SCE) in vitro, Assay Code: SC2+*, Activation: With metabolic activation, Evaluation Type: Evaluation B (Post-1980)",active; positive
same,mutagenic call,[3],no conclusion
CCc1cc(C(N)=S)ccn1,mutagenic call,[17],no conclusion
Cc1cccc2ccc3c4ccccc4ccc3c12,mutagenic call,[14],active; positive
O=C1CN(/N=C/c2ccc([N+](=O)[O-])o2)C(=O)N1CO,mutagenic call,"Species/Cell Type: Human, Sex: Male, Assay Type: Sperm morphology, Assay Code: SPHT, Evaluation Type: Evaluation A (Pre-1980)",no conclusion
CCc1ccc(O)cc1,mutagenic call,[18],no conclusion
same,mutagenic call,[17],no conclusion
CCc1ccccc1O,mutagenic call,[18],no conclusion
same,mutagenic call,[17],no conclusion
Oc1cc2cccc3ccc4cc5ccccc5c1c4c32,mutagenic call,[15],inactive; negative
same,call,[16],active; positive
same,mutagenic call,[11],no conclusion
ClCc1c2ccccc2c(Cl)c2ccccc12,mutagenic call,[5],active; positive
CS(=O)(=O)OC[C@H](O)[C@@H](O)COS(C)(=O)=O,mutagenic call,[9],active; positive
same,mutagenic call,"Species/Cell Type: Arabidopsis species, Assay Type: Gene mutation, Assay Code: ARM+, Evaluation Type: Evaluation A (Pre-1980)",active; positive
same,mutagenic call,[13],active; positive
same,mutagenic call,"Species/Cell Type: Vicia faba, Assay Type: Chromosome aberrations, Assay Code: VIC+, Evaluation Type: Evaluation A (Pre-1980)",active; positive
CN(C)N=Nc1cccnc1,mutagenic call,[6],active; positive
same,mutagenic call,"Species/Cell Type: Mammalian polychromatic erythrocytes, Assay Type: Micronucleus test, chromosome aberrations, Assay Code: MNT+, Evaluation Type: Evaluation A (Pre-1980)",active; positive
same,mutagenic call,[12],active; positive
same,mutagenic call,[4],active; positive
